{"source": "paper PMC12535076", "about": "“Neurotherapeutic effects of Vutiglabridin as a Paraoxonase-2 modulator in preclinical models of Parkinson’s disease” (Molecular Neurodegeneration, 2025)", "key": {"[1]": {"test": "Octanol-water partition coefficient measurement", "assay_type": "physicochemical", "conditions": "octanol / pH 7.4 phosphate buffer, octanol / pH7.4 phosphate buffer, room temperature 24 h, aqueous phase below LOQ, LOQ value used, read-out: octanol-water partition coefficient (log D)", "procedure": "1000 µg/mL of Vuti was mixed with octanol, and an aliquot of 2 mL was mixed with the same amount of aliquot of 2 mL of pH7.4 phosphate buffer. The mixed solution was shaken at room temperature for 24 h, and the aqueous and octanol phase was separately analyzed for Vuti concentration via HLPC. The limit of quantification (LOQ) was 0.2012 µg/ml. Three replicates were performed. Because no concentration was detected in the aqueous phase, LOQ value was used; the actual concentration in the aqueous phase is expected to be lower than LOQ. The octanol-water partition coefficient Log D was calculated as log of concentration in octanol phase divided by concentration in aqueous phase.\n(a) Measurement of Vuti concentration in octanol and aqueous phase (pH7.4 phosphate buffer) via HPLC. The mean value of three replicates was used, and the limit of quantification (LOQ) value was used to calculate Log D as a log of concentration in the octanol phase divided by the concentration in the aqueous phase. (b) Efflux ratios (Papp(B→A)/Papp(A→B)) of Vuti in three types of cell monolayers, with or without P-glycoprotein (P-gp) inhibitor GF120918. (c) Schematic of 14C-labeling of Vuti. Attachment to the ethoxy group is warranted because it is robustly maintained throughout metabolism. (d) Plasma radioactivity concentration in Sprague-Dawley rats after a single administration of 10 mg/kg of 14C-Vuti (n = 3)."}, "[2]": {"test": "QWBA and plasma radioactivity after oral 14C-Vuti in rats", "assay_type": "in vivo, Sprague-Dawley rat", "conditions": "abstract statement; species not stated there", "procedure": "Male 8-week-old Sprague Dawley rats (n = 5, 16 h fasted; Charles River Laboratories Japan Inc., Yokohama, Japan) were orally administered 10 mg/kg of ^14C-Vuti (equivalent to radioactivity of 3.7 MBq/kg, Glaceum Inc., Suwon, Korea). After 2, 6, and 24 h, each rat was euthanized by CO2 inhalation. The nasal cavity and anus were filled with 4% w/v sodium carboxymethyl cellulose, and the carcass was frozen in a dry ice-acetone mixture. […] The radioactivity was measured by the bio-imaging analyzer system (FUJIX-BAS2500, Fujifilm, Tokyo, Japan; resolution µm, gradation 256, sensitivity 10000, latitude 4), in which the radioactivity in organs was converted to the photo-stimulated luminescence per unit area (PSL/mm^2) minus the background radioactivity of the plastic standard samples. Tissue radioactivity in whole-body auto-radiograms was quantified by densitometry using an MCID image analysis software (v. 7.0, MCID Image Analysis Software Solutions for Life Sciences, Cambridge, UK). Radioactivity concentrations were expressed as ng equivalents of ^14C-Vuti per gram tissue (ng eq/g tissue). […]\nFor measuring the radioactive concentration in the plasma, blood (250 uL) was collected from the tail vein of the animals (n = 3) of the exact same conditions as the animals used for QWBA assay. […] Then the tissue to blood ratio was calculated. […]"}, "[3]": {"test_system": "panel of a total of 225 mammalian proteins", "test": "In vitro safety (off-target) screening panel", "conditions": "225 targets: ion channels, GPCR, nuclear receptors, kinases, enzymes, transporters; data not shown", "procedure": "The overall safety of Vuti has been already established through human phase 1 clinical trial (NCT04732988, NCT04733001, NCT04703764). However, for its potential repositioning as a central nervous system (CNS)-targeting drug candidate, we performed a comprehensive neurotoxicity assessment of Vuti through in vitro safety screening. Interactions of Vuti were tested against an extensive panel of a total of 225 mammalian proteins, including ion channels, G-protein coupled receptors (GPCR), nuclear receptors, kinases, non-kinase enzymes, and drug transporters, cardiac function, and drug-drug interactions. Additionally, these also examined whether Vuti interacted with reported direct targets of glabridin [37], such as estrogen receptor, peroxisome proliferator-activated receptor gamma (PPARγ), and cyclooxygenase 2 (COX-2)."}, "[4]": {"test_system": "Sprague-Dawley rats", "test": "Functional observational battery (FOB) evaluation", "assay_type": "in vivo, rat", "conditions": "male SD rats, single oral 500, 1000, 2000 mg/kg; 0.5, 1, 3, 6, 24 h", "procedure": "To further investigate the potential neurotoxicity of Vuti in vivo, a standard functional observational battery (FOB) evaluation was performed. Male Sprague-Dawley rats were administered single high doses of Vuti – 500, 1000, and 2000 mg/kg. Subsequently, two observers blindly scored the behavior of animals in the home cage, open field, hand-held, and sensory-motor function at time points of 0.5, 1, 3, 6, and 24 h.\nMale 6-week-old Sprague-Dawley Rat was orally administered with 0, 500, 1000, or 2000 mg/kg of Vuti (n = 8 per group). Two observers performed blind observations following the standard guideline (3) at 0.5, 1-, 3-, 6-, and 24-hours post-dose on the basis of the pharmacokinetics parameters. […] NC = No change, NSC = No statistically significant change."}}}
{"smiles": "CCOc1ccc(C2COc3c(ccc4c3CCC(C)(C)O4)C2)c(O)c1", "note": "(stereo not shown) [Vuti, Vutiglabridin]", "values": [{"measurement": "logD at 24 h", "setting": "[1]", "result": "> 3.69"}, {"measurement": "duration of presence in the brain", "setting": "[2]", "result": "over 24 h"}, {"measurement": "off-target interactions", "setting": "[3]", "result": "no significant unexpected targets"}, {"measurement": "behaviors in FOB (home cage, open field, hand-held, sensory-motor function)", "setting": "[4]", "result": "did not induce statistically significant changes"}]}
